Laboratory results: PMC5617480 (Oncotarget, 2017)

Experiments:
BEL-7404 cells = experiment: Senescence induction (SA-β-Gal staining); type: cell-based, human; conditions: BEL-7404, 2.0 μM, 7 d, compared with complexes 4 and 5
Protocol: Platinum(II)-based drugs were widely used in anticancer chemotherapies, therefore, we performed experiments to test the potency of chiral platinum(II) complexes 4–6 for inducing senescence and apoptosis in BEL-7404 cells. […] We next investigated the effect of complexes 4–6 on the induction of apoptosis. BEL-7404 cells were incubated with complexes 4 (10 and 20 μM), 5 (10 and 20 μM) and 6 (5, 10 and 20 μM) for 24 h, respectively, and then these cells staining with PI and Annexin-V-FITC were determined by flow cytometry (Figure 3A and Supplementary Figure 18). […] Cells were treated with complexes 4–6 at 10 μM for 48 h, the cell cycle arrest was determined by using flow cytometry. […]
Apoptosis analysis c-myc antibody, or anti-β-actin primary antibody and the Apoptosis was detected by flow cytometric analysis corresponding secondary antibody were used to detect of annexin V staining. […] Then, cells were incubated with annexin V-FITC and PI for 1.0 h at Staining for SA-β-Gal activity was carried out room temperature in the dark and immediately analyzed according to Moore and Chen reports. […] The data are presented as biparametric After the long-term incubation with complexes 4–6, the dot plots showing PI red fluorescence vs annexin V-FITC growth medium was aspirated and the BEL-7404 cells green fluorescence. were fixed in 2% formaldehyde/0.2% glutaraldehyde for 15.0 min at room temperature. […]

KM mice = experiment: Acute toxicity studies, single dose; type: in vivo; conditions: for Death (%) on day 14 / No. of death mice, Five-fourteen day / No. of death mice, Four day / No. of death mice, One day / No. of death mice, Three day / No. of death mice, Two day / Total death: 10 animals
Protocol: We further evaluated the safety of chiral platinum(II) complex 6 by using KM mice via the tail vein injection with a single dose of complex 6 at 15, 12, 9.6 and 7.8 mg/kg, respectively. After 14 days, the mortality rate of mice was calculated (Supplementary Figure 31 and Supplementary Table 10). […] However, at higher doses (>7.8 mg/kg), death of mice occurred. Thus, the doses of 7.8 mg/kg of complex 6 were employed in the further in vivo experiment.

[1] = single tail vein dose 7.8 mg/kg
[2] = single tail vein dose 9.6 mg/kg

cis-[PtCl2(S-(–)-FOA)] [complex 6]
level of senescence (β-galactosidase stain) (BEL-7404 cells): higher level of senescence | Death (%) on day 14 (KM mice; [1]): 0% | No. of death mice, Five-fourteen day (KM mice; [1]): 0 | No. of death mice, Four day (KM mice; [1]): 0 | No. of death mice, One day (KM mice; [1]): 0 | No. of death mice, Three day (KM mice; [1]): 0 | No. of death mice, Two day (KM mice; [1]): 0 | Total death (KM mice; [1]): 0 | acute toxicity finding (KM mice; single tail vein dose 7.8 mg/kg, 14 days): did not kill any animal or cause any abnormality | Death (%) on day 14 (KM mice; [2]): 10% | No. of death mice, Five-fourteen day (KM mice; [2]): 0 | No. of death mice, Four day (KM mice; [2]): 0 | No. of death mice, One day (KM mice; [2]): 0 | No. of death mice, Three day (KM mice; [2]): 0 | No. of death mice, Two day (KM mice; [2]): 1 | Total death (KM mice; [2]): 1 | Death (%) on day 14 (KM mice; single tail vein dose 12 mg/kg): 40% | No. of death mice, Five-fourteen day (KM mice; single tail vein dose 12 mg/kg): 0 | No. of death mice, Four day (KM mice; single tail vein dose 12 mg/kg): 0 | No. of death mice, One day (KM mice; single tail vein dose 12 mg/kg): 3 | No. of death mice, Three day (KM mice; single tail vein dose 12 mg/kg): 1 | No. of death mice, Two day (KM mice; single tail vein dose 12 mg/kg): 1 | Death (%) on day 14 (KM mice; single tail vein dose 15 mg/kg): 90% | No. of death mice, Five-fourteen day (KM mice; single tail vein dose 15 mg/kg): 0 | No. of death mice, Four day (KM mice; single tail vein dose 15 mg/kg): 0 | No. of death mice, One day (KM mice; single tail vein dose 15 mg/kg): 7 | No. of death mice, Three day (KM mice; single tail vein dose 15 mg/kg): 1 | No. of death mice, Two day (KM mice; single tail vein dose 15 mg/kg): 1 | Total death (KM mice; single tail vein dose 15 mg/kg): 9
